Assay results from paper PMC6516043, “Functional Analysis of the Chemosensory Protein GmolCSP8 From the Oriental Fruit Moth, Grapholita molesta (Busck) (Lepidoptera: Tortricidae)” (Frontiers in Physiology, 2019).
Where two headings read alike, the source gives them in different places.

Legend:
rGmolCSP8 = rGmolCSP8 (Grapholita molesta, UniProt A0A0M4FML8); experiment: Fluorescence competitive binding assay (1-NPN displacement), wild-type; conditions: for binding to rGmolCSP8 (in words): wild-type rGmolCSP8, pH 7.4
Protocol: The fluorescence spectra were recorded using a fluorescence spectrophotometer (F-4500, Hitachi, Tokyo, Japan) in a 1 cm light path fluorimeter quartz cuvette with 10 nm slits for excitation and 20 nm slits for emission. […] The fluorescent probe N-phenyl-1-naphthylamine (1-NPN) and all putative ligands used in binding assays were dissolved in methanol (HPLC purity grade) to obtain a 1 mM stock solution. The rGmolCSP8 protein was diluted to in 20 mM Tris–HCl to obtain a 2 μM solution, pH 7.4. […] The fluorescent probe was excited at 337 nm and emission spectra were recorded from 370 to 550 nm. […] Binding data were obtained from three replicates assays for each concentration of each tested ligand.

GmolCSP8-L80A = GmolCSP8-L80A (Grapholita molesta, UniProt A0A0M4FML8, L95A); experiment: biochemical; format: binding
Protocol: (§1) To determine whether GmolCSP8 is involved in odorant binding, fluorescence competitive binding assays were performed ([Zhong et al., 2012]). The fluorescence spectra were recorded using a fluorescence spectrophotometer (F-4500, Hitachi, Tokyo, Japan) in a 1 cm light path fluorimeter quartz cuvette with 10 nm slits for excitation and 20 nm slits for emission. The selected chemicals are listed in Table 2, and included four sex pheromone components and 34 volatiles from different host plants (peach and pear trees) of G. molesta based on previous investigations ([Natale et al., 2004]; [Lu et al., 2012]; [Najar-Rodriguez et al., 2013b]). The fluorescent probe N-phenyl-1-naphthylamine (1-NPN) and all putative ligands used in binding assays were dissolved in methanol (HPLC purity grade) to obtain a 1 mM stock solution. The rGmolCSP8 protein was diluted to in 20 mM Tris–HCl to obtain a 2 μM solution, pH 7.4. To measure the binding affinity of 1-NPN for GmolCSP8, a 2 μM solution of protein was titrated with aliquots of 1 mM 1-NPN prepared to final concentrations ranging from 1 to 22 μM. The fluorescent probe was excited at 337 nm and emission spectra were recorded from 370 to 550 nm. […] Binding data were obtained from three replicates assays for each concentration of each tested ligand. Dissociation constants (Kd) of protein to 1-NPN were calculated by non-linear regression, using GraphPad Prism 4.00 software (GraphPad Software Inc.). The inhibition constants (Ki) of the competitors were determined using the corresponding IC50 values (concentration of competitor that reduced the initial fluorescence intensity by half) based on the following equation: Ki = [IC50]/(1+[1-NPN]/K1-NPN), where [1-NPN] is the free concentration of 1-NPN and K1-NPN is the dissociation constant of the complex GmolCSP8/1-NPN.
(§2) To verify the four predicted key amino acid sites of GmolCSP8 binding for 1-hexanol, recombinant plasmids for four CSP8 mutants were obtained via site-directed mutagenesis experiments. Specific primers introducing mutation sites of the four key amino acid CSP8 plasmids (GmolCSP8-T27A, GmolCSP8-L30A, GmolCSP8-V40A, and GmolCSP8-L80A) were designed and are listed in Table 1. The four mutants were mutated by using the TaKaRa MutanBEST Kit (TaKaRa, Shiga, Japan) with the pMD®19-T/GmolCSP8 plasmid DNA as template. All plasmids containing mutations were validated by sequencing with five randomly selected single colonies. pMD®19-T plasmids including four CSP8 mutants were digested with Bam HI and Hind III restriction enzymes. Then, the target sequences were ligated into the expression vector pET28a (+) and transformed into BL21 (DE3) competent cells for expression. After sequencing verification, the corresponding rGmolCSP8 mutant proteins were induced and purified, and the binding affinities to 1-hexanol and its analogs were verified via ligand-binding assays according to the method described above.

GmolCSP8-L30A = GmolCSP8-L30A (Grapholita molesta, UniProt A0A0M4FML8, L45A); experiment: biochemical; format: binding
Protocol: as §1, §2

GmolCSP8-T27A = GmolCSP8-T27A (Grapholita molesta, UniProt A0A0M4FML8, T42A); experiment: biochemical; format: binding; conditions: for fold decrease in binding vs wild-type: mutant T27A compared with wild-type rGmolCSP8
Protocol: as §1, §2

GmolCSP8-V40A = GmolCSP8-V40A (Grapholita molesta, UniProt A0A0M4FML8, V55A); experiment: biochemical; format: binding
Protocol: as §1, §2

[1] = 2 μM rGmolCSP8 and 2 μM 1-NPN, 20 mM Tris-HCl pH 7.4, read-out: IC50
[2] = 2 μM rGmolCSP8 and 2 μM 1-NPN, pH 7.4, calculated from IC50, read-out: Ki
[3] = mutant L30A compared with wild-type
[4] = read-out: Ki (μM) L30A; mutant L30A; – = lost ability to bind

Sequence of GmolCSP8-V40A (A0A0M4FML8 entry or part of it V55A): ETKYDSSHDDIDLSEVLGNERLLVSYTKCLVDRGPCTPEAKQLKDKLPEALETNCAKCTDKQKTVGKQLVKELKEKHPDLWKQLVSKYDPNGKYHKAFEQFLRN
Sequence of GmolCSP8-T27A (A0A0M4FML8 entry or part of it T42A): as the sequence (A0A0M4FML8 entry or part of it V55A) above, with T27A, A40V counted along it
Sequence of GmolCSP8-L80A (A0A0M4FML8 entry or part of it L95A): as the sequence (A0A0M4FML8 entry or part of it V55A) above, with A40V, L80A counted along it
Sequence of GmolCSP8-L30A (A0A0M4FML8 entry or part of it L45A): as the sequence (A0A0M4FML8 entry or part of it V55A) above, with L30A, A40V counted along it
Sequence of rGmolCSP8 (A0A0M4FML8 entry or part of it): as the sequence (A0A0M4FML8 entry or part of it V55A) above, with A40V counted along it

Compound | IC50 (rGmolCSP8; [1]) [µM] | Ki (rGmolCSP8; [2]) [µM] | further results
CCCCCCOC(C)=O [Hexyl acetate] | > 24 | > 24 | 
CCCCCCC(=O)OCC [Ethyl heptanoate] | > 24 | > 24 | 
CC(C)CCO [3-methyl-1-butanol] | 6.6 ± 0.45 | 6.32 ± 0.52 | 
CCCCOC(=O)CCC [Butyl butyrate] | > 24 | > 24 | 
CC1=CCC2CC1C2(C)C (stereo not drawn) [α-Pinene] | > 24 | > 24 | binding to rGmolCSP8 (in words) (rGmolCSP8): cannot bind
CCCCCC=O [Hexanal] | > 24 | > 24 | binding to rGmolCSP8 (in words) (rGmolCSP8): cannot bind
O=Cc1ccccc1 [Benzaldehyde] |  |  | IC50 (rGmolCSP8): > 24 µM; Ki (rGmolCSP8): > 24 µM; binding to rGmolCSP8 (in words) (rGmolCSP8): cannot bind
CCCCCC(=O)OCC [Ethyl hexanoate] | > 24 | > 24 | 
CCCCCCC=O [Heptanal] | > 24 | > 24 | binding to rGmolCSP8 (in words) (rGmolCSP8): cannot bind
CC(=O)OCCC(C)C [Isoamyl acetate] | > 24 | > 24 | 
CCCCCCCCCCO [1-decanol] | 7.16 ± 0.58 | 6.6 ± 0.54 | Ki (GmolCSP8-L80A): 6.32 ± 0.65 µM; binding to mutant L30A (in words) (GmolCSP8-L30A; [3]): lost its ability to bind; Ki (GmolCSP8-L30A; [4]): > 24 µM; Ki (GmolCSP8-T27A): 12.7 ± 1.79 µM; fold decrease in binding vs wild-type (GmolCSP8-T27A): 1.5- to 2.0 fold; Ki (GmolCSP8-V40A): 7.02 ± 0.47 µM
CCCC(=O)OCC [Ethyl butyrate] | > 24 | > 24 | 
COC(=O)c1ccccc1O [Methyl salicylate] | > 24 | > 24 | 
CC/C=C\CCOC(C)=O [Cis-3-hexenyl acetate] | > 24 | > 24 | binding to rGmolCSP8 (in words) (rGmolCSP8): cannot bind
CCCCCCCCCCCCCCO [1-tetradecanol] |  |  | IC50 (rGmolCSP8): > 24 µM; Ki (rGmolCSP8): > 24 µM; binding to rGmolCSP8 (in words) (rGmolCSP8): unable to bind
CCCCCC(=O)OCCCC [Butyl hexanoate] | > 24 | > 24 | binding to rGmolCSP8 (in words) (rGmolCSP8): cannot bind
CCCCCCCCCC=O [Decanal] | > 24 | > 24 | 
CCCCCCCCCCCCCC [Tetradecane] | > 24 | > 24 | 

Compound | IC50 (rGmolCSP8; [1]) [µM] | Ki (rGmolCSP8; [2]) [µM] | further results
CCCCCO [1-pentanol] | 8.79 ± 0.99 | 8.18 ± 0.93 | Ki (GmolCSP8-L80A): 6.66 ± 0.64 µM; binding to mutant L30A (in words) (GmolCSP8-L30A; [3]): lost its ability to bind; Ki (GmolCSP8-L30A; [4]): > 24 µM; IC50 (GmolCSP8-T27A): > 24 µM; Ki (GmolCSP8-T27A; read-out: Ki (μM) T27A, mutant T27A, – = did not displace 50% 1-NPN at ligand up to 24 μM): > 24 µM; Ki (GmolCSP8-V40A): 12.4 ± 1.41 µM
CCCCCCCO [1-heptanol] | 6.79 ± 0.56 | 6.2 ± 0.42 | Ki (GmolCSP8-L80A): 6.02 ± 0.66 µM; binding to mutant L30A (in words) (GmolCSP8-L30A; [3]): lost its ability to bind; Ki (GmolCSP8-L30A; [4]): > 24 µM; Ki (GmolCSP8-T27A): 9.01 ± 0.9 µM; fold decrease in binding vs wild-type (GmolCSP8-T27A): 1.5- to 2.0 fold; Ki (GmolCSP8-V40A): 9.68 ± 0.75 µM
CCC/C=C\CCCCCCCO [(Z)-8-dodecenyl alcohol] | > 24 | > 24 | 
C=C/C(C)=C/CCC(=C)C [α-Ocimene] | 18.9 ± 1.29 | 17.6 ± 0.81 | 
CCCCCCCCCCCCCCCC [Hexadecane] | > 24 | > 24 | 
CCCCCCCCC=O [Nonanal] | > 24 | > 24 | 
CC/C=C\CC1C(=O)CCC1CC(=O)OC (stereo not drawn) [Methyl jasmonate] | > 24 | > 24 | 
CCCCCCCCCCCCCCC [Pentadecane] | > 24 | > 24 | 
CC/C=C\CCO [Cis-3-hexen-1-ol] | 9.14 ± 0.73 | 8.51 ± 0.68 | 
CCCCO [1-butanol] | 7.32 ± 0.56 | 6.65 ± 0.52 | Ki (GmolCSP8-L80A; mutant L80A, read-out: Ki (μM) L80A): 6.75 ± 0.57 µM; Ki (GmolCSP8-L30A; mutant L30A; – = lost ability to bind; read-out: Ki (μM) L30A): 17.1 ± 1.05 µM; IC50 (GmolCSP8-T27A; mutant T27A, ligands up to 24 μM, read-out: ligand concentration displacing 50% 1-NPN from CSP8-T27A/1-NPN complex): > 24 µM; Ki (GmolCSP8-T27A; mutant T27A, – = did not displace 50% 1-NPN at ligand up to 24 μM, read-out: Ki (μM) T27A): > 24 µM; Ki (GmolCSP8-V40A; mutant V40A, read-out: Ki (μM) V40A): 8.07 ± 0.61 µM; Ki (rGmolCSP8; Table 3, wild-type rGmolCSP8, read-out: Ki (μM) Wild-Type): 6.65 ± 0.52 µM
N#Cc1ccccc1 [Benzonitrile] | > 24 | > 24 | binding to rGmolCSP8 (in words) (rGmolCSP8): cannot bind
CCC/C=C/CCCCCCCOC(C)=O [(E)-8-dodecenyl acetate] | > 24 | > 24 | 
CCC/C=C/C=O [(E)-2-hexenal] | > 24 | > 24 | binding to rGmolCSP8 (in words) (rGmolCSP8): cannot bind
CCCCCCCCCCCCCCCCCC [Octadecane] | > 24 | > 24 | 
CCCCCCCCCC [Decane] | > 24 | > 24 | 
CCCCCCCC=O [Octanal] | > 24 | > 24 | 
CCCCOC(C)=O [Butyl acetate] |  |  | IC50 (rGmolCSP8): > 24 µM; Ki (rGmolCSP8): > 24 µM
CCC/C=C\CCCCCCCOC(C)=O [(Z)-8-dodecenyl acetate] | > 24 | > 24 | 
